Data on one molecule can be found in publication PMC5218480 (PLoS ONE, 2017).

The subject of this assay is MV-4-11 cells. Nature of the assay: Gene expression microarray analysis (Affymetrix PrimeView) and GSEA. The class given is cell-based, human. On the set-up: RFU PODN (11730768_x_at) / Fold change /veh PODN (11730768_x_at) / RFU LINC00158 (11744669_a_at) / Fold change /veh LINC00158 (11744669_a_at) / RFU DUSP10 (11751237_a_at) / Fold change /veh DUSP10 (11751237_a_at) / RFU ID3 (11757404_x_at) / Fold change /veh ID3 (11757404_x_at) / RFU PLEKHG5 (11737974_s_at) / Fold change /veh PLEKHG5 (11737974_s_at) / RFU LRRC4B (11730491_at) / Fold change /veh LRRC4B (11730491_at) / RFU GIMAP4 (11747438_a_at) / Fold change /veh GIMAP4 (11747438_a_at) / RFU KRT8 (11758183_x_at) / Fold change /veh KRT8 (11758183_x_at) / RFU CNN1 (11734310_a_at) / Fold change /veh CNN1 (11734310_a_at) / RFU VPS37D (11726825_at) / Fold change /veh VPS37D (11726825_at) / RFU C10orf10 (11716522_x_at) / Fold change /veh C10orf10 (11716522_x_at) / RFU KIR2DL2 /// KIR2DL4 /// KIR2DL5A /// KIR2DL5B /// KIR2DS1 /// KIR2DS2 /// KIR2DS3 /// KIR2DS4 /// KIR3DL3 /// KIR3DL3 /// KIR3DS1 (11738374_at) / Fold change /veh KIR2DL2 /// KIR2DL4 /// KIR2DL5A /// KIR2DL5B /// KIR2DS1 /// KIR2DS2 /// KIR2DS3 /// KIR2DS4 /// KIR3DL3 /// KIR3DL3 /// KIR3DS1 (11738374_at) / RFU C1QL1 (11718748_at) / Fold change /veh C1QL1 (11718748_at) / RFU TMPRSS4 (11747572_a_at) / Fold change /veh TMPRSS4 (11747572_a_at) / RFU HAMP (11756126_x_at) / Fold change /veh HAMP (11756126_x_at) / RFU RNFT2 (11725882_a_at) / Fold change /veh RNFT2 (11725882_a_at) / RFU NR4A2 (11747474_a_at) / Fold change /veh NR4A2 (11747474_a_at) / RFU ABCC12 (11746883_a_at) / Fold change /veh ABCC12 (11746883_a_at) / RFU TMEM136 (11760407_x_at) / Fold change /veh TMEM136 (11760407_x_at) / RFU CLDN22 /// WWC2 (11732394_at) / Fold change /veh CLDN22 /// WWC2 (11732394_at) / RFU HLA-DPB1 (11760878_x_at) / Fold change /veh HLA-DPB1 (11760878_x_at) / RFU SPINT1 (11716480_a_at) / Fold change /veh SPINT1 (11716480_a_at) / RFU GAP43 (11754022_s_at) / Fold change /veh GAP43 (11754022_s_at) / RFU A4GNT (11735810_at) / Fold change /veh A4GNT (11735810_at) / RFU PRB3 (11715151_x_at) / Fold change /veh PRB3 (11715151_x_at) / RFU TUBB4B (11761932_at) / Fold change /veh TUBB4B (11761932_at) / RFU CAPN14 (11732068_a_at) / Fold change /veh CAPN14 (11732068_a_at) / RFU TMCC2 (11721928_a_at) / Fold change /veh TMCC2 (11721928_a_at) / RFU IRGQ (11745062_a_at) / Fold change /veh IRGQ (11745062_a_at) / RFU FAM174B (11720279_a_at) / Fold change /veh FAM174B (11720279_a_at) / RFU TMPRSS4 (11748680_a_at) / Fold change /veh TMPRSS4 (11748680_a_at) / RFU FAM212B (11763350_a_at) / Fold change /veh FAM212B (11763350_a_at) / RFU PLEKHG5 (11743358_a_at) / Fold change /veh PLEKHG5 (11743358_a_at) / RFU ZSCAN30 (11745921_a_at) / Fold change /veh ZSCAN30 (11745921_a_at) / RFU CMKLR1 (11741424_a_at) / Fold change /veh CMKLR1 (11741424_a_at) / RFU LOC101060620 /// MAPK8IP1 (11723275_at) / Fold change /veh LOC101060620 /// MAPK8IP1 (11723275_at) / RFU SPTSSB (11747773_x_at) / Fold change /veh SPTSSB (11747773_x_at) / RFU PRSS12 (11739890_at) / Fold change /veh PRSS12 (11739890_at) / RFU BIN1 (11741810_x_at) / Fold change /veh BIN1 (11741810_x_at) / RFU WNT11 (11732464_a_at) / Fold change /veh WNT11 (11732464_a_at) / RFU C10orf10 (11716521_a_at) / Fold change /veh C10orf10 (11716521_a_at) / RFU C5orf56 (11738089_at) / Fold change /veh C5orf56 (11738089_at) / RFU CYB561 (11721691_x_at) / Fold change /veh CYB561 (11721691_x_at) / RFU ANKRD19P (11752326_a_at) / Fold change /veh ANKRD19P (11752326_a_at) / RFU OR2T12 /// OR2T33 /// OR2T8 (11738714_s_at) / Fold change /veh OR2T12 /// OR2T33 /// OR2T8 (11738714_s_at) / RFU VCAN (11748164_a_at) / Fold change /veh VCAN (11748164_a_at) / RFU JSRP1 (11732532_at) / Fold change /veh JSRP1 (11732532_at) / RFU KRTAP10-11 (11738290_x_at) / Fold change /veh KRTAP10-11 (11738290_x_at) / RFU MYO3A (11730013_a_at) / Fold change /veh MYO3A (11730013_a_at) / RFU EBF3 (11725865_a_at) / Fold change /veh EBF3 (11725865_a_at) / RFU CAMK2N1 (11719241_x_at) / Fold change /veh CAMK2N1 (11719241_x_at) / RFU C5orf56 (11738088_a_at) / Fold change /veh C5orf56 (11738088_a_at) / RFU OLFML3 (11715873_a_at) / Fold change /veh OLFML3 (11715873_a_at) / RFU LOC100653217 /// NTM (11731650_a_at) / Fold change /veh LOC100653217 /// NTM (11731650_a_at) / RFU MAPK11 (11762145_a_at) / Fold change /veh MAPK11 (11762145_a_at) / RFU FIZ1 (11724087_x_at) / Fold change /veh FIZ1 (11724087_x_at) / RFU OASL (11726364_x_at) / Fold change /veh OASL (11726364_x_at) / RFU SOX15 (11748057_x_at) / Fold change /veh SOX15 (11748057_x_at) / RFU CD79A (11719716_a_at) / Fold change /veh CD79A (11719716_a_at) / RFU HIST1H1D (11736915_at) / Fold change /veh HIST1H1D (11736915_at) / RFU CASKIN2 (11723855_a_at) / Fold change /veh CASKIN2 (11723855_a_at) / RFU LOC730098 (11760151_x_at) / Fold change /veh LOC730098 (11760151_x_at) / RFU OR4N2 (11742367_at) / Fold change /veh OR4N2 (11742367_at) / RFU PRRT2 (11749266_a_at) / Fold change /veh PRRT2 (11749266_a_at) / RFU SNX32 (11753110_a_at) / Fold change /veh SNX32 (11753110_a_at) / RFU CDHR5 (11726645_a_at) / Fold change /veh CDHR5 (11726645_a_at) / RFU RCAN1 (11760418_a_at) / Fold change /veh RCAN1 (11760418_a_at) / RFU FAM167A (11723789_a_at) / Fold change /veh FAM167A (11723789_a_at) / RFU FAM26E (11764081_at) / Fold change /veh FAM26E (11764081_at) / RFU ISYNA1 (11749810_s_at) / Fold change /veh ISYNA1 (11749810_s_at) / RFU ACY1 (11761880_at) / Fold change /veh ACY1 (11761880_at) / RFU 11764098_at / Fold change /veh 11764098_at / RFU SAMD14 (11745864_x_at) / Fold change /veh SAMD14 (11745864_x_at) / RFU NPB (11741838_a_at) / Fold change /veh NPB (11741838_a_at) / RFU TMPRSS6 (11731388_a_at) / Fold change /veh TMPRSS6 (11731388_a_at) / RFU KRTAP10-2 (11738614_at) / Fold change /veh KRTAP10-2 (11738614_at) / RFU ARHGAP8 /// PRR5-ARHGAP8 (11727945_x_at) / Fold change /veh ARHGAP8 /// PRR5-ARHGAP8 (11727945_x_at) / RFU KRTAP5-7 /// NADSYN1 (11734609_at) / Fold change /veh KRTAP5-7 /// NADSYN1 (11734609_at) / RFU RASL12 (11751679_a_at) / Fold change /veh RASL12 (11751679_a_at) / RFU CDKN2B (11736163_a_at) / Fold change /veh CDKN2B (11736163_a_at) / RFU PRF1 (11729649_at) / Fold change /veh PRF1 (11729649_at) / RFU, ZNF638 /// ZNF638-IT1 / Fold change vs veh, ZNF638 /// ZNF638-IT1 / RFU, PANK3 / Fold change vs veh, PANK3 / RFU, SH3YL1 / Fold change vs veh, SH3YL1 / RFU, ZEB2 / Fold change vs veh, ZEB2 / RFU, NRIP1 / Fold change vs veh, NRIP1 / RFU, PTTG1IP / Fold change vs veh, PTTG1IP / RFU, CAPN2 / Fold change vs veh, CAPN2 / RFU, MED14 / Fold change vs veh, MED14 / RFU, SNORA58 / Fold change vs veh, SNORA58 / RFU, C1orf63 / Fold change vs veh, C1orf63 / RFU, LRRFIP1 / Fold change vs veh, LRRFIP1 / RFU, NDUFAF7 / Fold change vs veh, NDUFAF7 / RFU, SLC12A2 / Fold change vs veh, SLC12A2 / RFU, IBTK / Fold change vs veh, IBTK / RFU, ESF1 / Fold change vs veh, ESF1 / Fold change vs veh, TMEM50B / RFU, TAOK1 / Fold change vs veh, TAOK1 / RFU, ACBD3 / Fold change vs veh, ACBD3 / RFU, TMA16 / Fold change vs veh, TMA16 / RFU, RWDD3 / Fold change vs veh, RWDD3 / RFU, BCAT1 / Fold change vs veh, BCAT1 / RFU, EDEM3 / Fold change vs veh, EDEM3 / RFU, TMEM33 / Fold change vs veh, TMEM33 / RFU, WDR75 / Fold change vs veh, WDR75 / RFU, AHCTF1 / Fold change vs veh, AHCTF1 / RFU, TFRC / Fold change vs veh, TFRC / RFU, ZDHHC17 / Fold change vs veh, ZDHHC17 / RFU, NOM1 / Fold change vs veh, NOM1 / RFU, ARL8B / Fold change vs veh, ARL8B / RFU, ZBTB11 / Fold change vs veh, ZBTB11 / RFU, TAMM41 / Fold change vs veh, TAMM41 / RFU, KIAA1704 /// LOC100996395 / Fold change vs veh, KIAA1704 /// LOC100996395 / RFU, ING1 / Fold change vs veh, ING1 / RFU, TRMT61B / Fold change vs veh, TRMT61B / RFU, FUBP3 / Fold change vs veh, FUBP3 / RFU, TP53 / Fold change vs veh, TP53 / RFU, TNKS2 / Fold change vs veh, TNKS2 / RFU, ZFP14 / Fold change vs veh, ZFP14 / RFU, ACTR2 / Fold change vs veh, ACTR2 / RFU, PPP3R1 / Fold change vs veh, PPP3R1 / RFU, PIK3R1 / Fold change vs veh, PIK3R1 / RFU, HNRNPA1 / Fold change vs veh, HNRNPA1 / RFU, RNF170 / Fold change vs veh, RNF170 / RFU, ZNF28 / Fold change vs veh, ZNF28 / RFU, RNGTT / Fold change vs veh, RNGTT / RFU, OGT / Fold change vs veh, OGT / RFU, BRD1 / Fold change vs veh, BRD1 / RFU, MARS / Fold change vs veh, MARS / RFU, ZNF655 / Fold change vs veh, ZNF655 / RFU, FAHD1 / Fold change vs veh, FAHD1 / RFU, BDP1 / Fold change vs veh, BDP1 / RFU, LRRCC1 / Fold change vs veh, LRRCC1 / RFU, ARID1A / Fold change vs veh, ARID1A / RFU, ZNF146 / Fold change vs veh, ZNF146 / RFU, ZNF330 / Fold change vs veh, ZNF330 / RFU, GPN3 / Fold change vs veh, GPN3 / RFU, C9orf123 / Fold change vs veh, C9orf123 / RFU, N4BP2L2 / Fold change vs veh, N4BP2L2 / RFU, ARFIP1 / Fold change vs veh, ARFIP1 / RFU, FAM179B / Fold change vs veh, FAM179B / RFU, BCL10 / Fold change vs veh, BCL10 / RFU, UHRF1BP1L / Fold change vs veh, UHRF1BP1L / RFU, BET1 / Fold change vs veh, BET1 / RFU, CNOT2 / Fold change vs veh, CNOT2 / RFU, ZNF268 / Fold change vs veh, ZNF268 / Fold change vs veh, ZNF507 / RFU, DGCR2 / Fold change vs veh, DGCR2 / RFU, WDSUB1 / Fold change vs veh, WDSUB1 / Fold change vs veh, HSP90B1 /// MIR3652 / RFU, ADSS / Fold change vs veh, ADSS / RFU, GK / Fold change vs veh, GK / RFU, ZNF148 / Fold change vs veh, ZNF148 / RFU, TAF9 / Fold change vs veh, TAF9 / RFU, SLC1A5 / Fold change vs veh, SLC1A5 / RFU, SLMO2 / Fold change vs veh, SLMO2 / RFU, ABCC4 / Fold change vs veh, ABCC4 / RFU, LOC101060439 /// RAP1B / Fold change vs veh, LOC101060439 /// RAP1B / RFU, RFX7 / Fold change vs veh, RFX7 / RFU, GTPBP10 / Fold change vs veh, GTPBP10 / RFU, CNEP1R1 / Fold change vs veh, CNEP1R1 / RFU, BIVM-ERCC5 /// ERCC5 / Fold change vs veh, BIVM-ERCC5 /// ERCC5 / RFU, ILF3 / Fold change vs veh, ILF3 / RFU 11762660_at / Fold change /veh 11762660_at / RFU VCAN (11757783_s_at) / Fold change /veh VCAN (11757783_s_at) / RFU DDX43 (11728927_at) / Fold change /veh DDX43 (11728927_at) / RFU KRT8 (11758188_x_at) / Fold change /veh KRT8 (11758188_x_at) / RFU NKD1 (11759106_at) / Fold change /veh NKD1 (11759106_at) / RFU SRD5A1 (11742802_a_at) / Fold change /veh SRD5A1 (11742802_a_at) / RFU TPSAB1 /// TPSB2 (11721975_s_at) / Fold change /veh TPSAB1 /// TPSB2 (11721975_s_at) / RFU GSTM3 (11746129_a_at) / Fold change /veh GSTM3 (11746129_a_at) / RFU IL23R (11737362_x_at) / Fold change /veh IL23R (11737362_x_at) / RFU TMEM51 (11727254_a_at) / Fold change /veh TMEM51 (11727254_a_at) / RFU PIWIL2 (11732686_x_at) / Fold change /veh PIWIL2 (11732686_x_at) / RFU ORM1 (11744905_x_at) / Fold change /veh ORM1 (11744905_x_at) / RFU CCDC152 (11743942_at) / Fold change /veh CCDC152 (11743942_at) / RFU ECM1 (11717891_a_at) / Fold change /veh ECM1 (11717891_a_at) / RFU IL23R (11748794_a_at) / Fold change /veh IL23R (11748794_a_at) / RFU TNFAIP8L3 (11732012_x_at) / Fold change /veh TNFAIP8L3 (11732012_x_at) / RFU MBOAT4 (11741988_at) / Fold change /veh MBOAT4 (11741988_at) / RFU 11764193_at / Fold change /veh 11764193_at / RFU TMEM53 (11763286_at) / Fold change /veh TMEM53 (11763286_at) / RFU MAGEB2 (11727129_at) / Fold change /veh MAGEB2 (11727129_at) / RFU TMEM200A (11744735_a_at) / Fold change /veh TMEM200A (11744735_a_at) / RFU CCDC152 (11751479_a_at) / Fold change /veh CCDC152 (11751479_a_at) / RFU FAM211A (11726209_a_at) / Fold change /veh FAM211A (11726209_a_at) / RFU RGS16 (11746705_a_at) / Fold change /veh RGS16 (11746705_a_at) / RFU VCAN (11755009_s_at) / Fold change /veh VCAN (11755009_s_at) / RFU RHOB (11743442_s_at) / Fold change /veh RHOB (11743442_s_at) / RFU RGS16 (11720943_a_at) / Fold change /veh RGS16 (11720943_a_at) / RFU RGS16 (11720944_at) / Fold change /veh RGS16 (11720944_at) / RFU, VPS4B / Fold change vs veh, VPS4B / RFU, CREB1 / Fold change vs veh, CREB1 / RFU, DNAJC13 / Fold change vs veh, DNAJC13 / RFU, GNAQ / Fold change vs veh, GNAQ / RFU, CDK5R1 / Fold change vs veh, CDK5R1 / RFU, ZRANB3 / Fold change vs veh, ZRANB3 / RFU, CUL4A / Fold change vs veh, CUL4A / RFU, CCNY / Fold change vs veh, CCNY / RFU, UFL1 / Fold change vs veh, UFL1 / RFU, COG3 / Fold change vs veh, COG3 / RFU, DIAPH2 / Fold change vs veh, DIAPH2 / RFU, SKA2 / Fold change vs veh, SKA2 / RFU, AFF3 / Fold change vs veh, AFF3 / RFU, LMF1 / Fold change vs veh, LMF1 / RFU, IPO11 / Fold change vs veh, IPO11 / RFU, DFFB / Fold change vs veh, DFFB / RFU, FOXP1 / Fold change vs veh, FOXP1 / RFU, CARD8 / Fold change vs veh, CARD8 / RFU, STRN3 / Fold change vs veh, STRN3 / RFU, ADK / Fold change vs veh, ADK / RFU, RASSF2 / Fold change vs veh, RASSF2 / RFU, WIPF1 / Fold change vs veh, WIPF1 / RFU, LARP1B / Fold change vs veh, LARP1B / RFU, RASA1 / Fold change vs veh, RASA1 / RFU, RB1 / Fold change vs veh, RB1 / RFU, PPFIA1 / Fold change vs veh, PPFIA1 / RFU, MAT2A / Fold change vs veh, MAT2A / RFU, CCT5 / Fold change vs veh, CCT5 / RFU, WDR92 / Fold change vs veh, WDR92 / RFU, CUX1 / Fold change vs veh, CUX1 / RFU, TTC7A / Fold change vs veh, TTC7A / RFU, TMEM135 / Fold change vs veh, TMEM135 / RFU, DEPTOR / Fold change vs veh, DEPTOR / RFU, CPM / Fold change vs veh, CPM / RFU, DNAJB6 / Fold change vs veh, DNAJB6 / RFU, CACNA2D3 / Fold change vs veh, CACNA2D3 / RFU, DTX4 / Fold change vs veh, DTX4 / RFU, TFCP2 / Fold change vs veh, TFCP2 / RFU, GMCL1 /// GMCL1P1 / Fold change vs veh, GMCL1 /// GMCL1P1 / RFU, AEBP2 / Fold change vs veh, AEBP2 / RFU, SNHG1 /// SNORD22 /// SNORD25 /// SNORD26 /// SNORD27 /// SNORD28 /// SNORD29 /// SNORD31 / Fold change vs veh, SNHG1 /// SNORD22 /// SNORD25 /// SNORD26 /// SNORD27 /// SNORD28 /// SNORD29 /// SNORD31 / Fold change (Aza/veh), C12orf56 (ProbeSet 11735607_a_at) / Fold change (ACY-1035/veh), C12orf56 (ProbeSet 11735607_a_at) / Fold change (Aza/veh), FGFR1OP (ProbeSet 11751329_s_at) / Fold change (ACY-1035/veh), FGFR1OP (ProbeSet 11751329_s_at) / Fold change (Aza/veh), VPS36 (ProbeSet 11739960_a_at) / Fold change (ACY-1035/veh), VPS36 (ProbeSet 11739960_a_at) / RFU SYPL1 (11715823_x_at) / Fold change /veh SYPL1 (11715823_x_at) / RFU IGFBP7 (11715501_s_at) / Fold change /veh IGFBP7 (11715501_s_at) / RFU REEP3 (11722064_at) / Fold change /veh REEP3 (11722064_at) / RFU IGLL1 (11728026_x_at) / Fold change /veh IGLL1 (11728026_x_at): dose or concentration left out as unconfirmed. The conditions noted are these: ProbeSet 11723944_a_at; LIST B.

Consider `Nc1ccc(-c2cccs2)cc1NC(=O)c1ccc2c(c1)cc(C1CC1)n2CCN1CCOCC1` [ACY-1035], for which the “Fold change vs veh, PTTG1IP” value was determined as 0.91.
